The subject of data set [1] is bacterial flora present on prerigor beef samples. In words: Working Example #1: total plate count on prerigor beef after spray, with or without steam. The format is cell-based. The procedure:
The objective of working example #1 was to determine if 0.5% and 1.0% lactic acid alone and in combination with Test Formula #1 and/or steam achieved a reduction in the bacterial flora present on prerigor beef samples. An exposure time of 10 minutes was utilized for all applications and testing was performed at 33° C. Sixteen prerigor beef samples were obtained and kept in a cooler until time of testing. Samples were aseptically divided in half. Eight different test treatments were utilized with four replicate pieces per treatment with the exception of the steam +0.5% lactic acid treatment which only had three replicate pieces. Two cores (4.3 cm diameter) were taken from each replicate piece before and after treatment, combined into 99 mL of Phosphate Buffered Dilution water, stomached for 1 minutes and then serially diluted and plated using pour plate technique. Test Products: • 1. Test Formula #1 at 200 ppm Total […] • 2. Test Formula #1 at 200 ppm Total […]+0.5% Lactic Acid • 3. Test Formula #1 at 200 ppm Total […]+1.0% Lactic Acid • 4. 0.5% Lactic Acid • 5. Steam Alone, followed by a sterile water rinse • 6. Steam+Test Formula #1 at 200 ppm Total […], followed by a sterile water rinse • 7. Steam+Test Formula #1 at 200 ppm Total […]+0.5% Lactic Acid, followed by a sterile water rinse • 8. Steam+0.5% Lactic Acid followed by a sterile water rinse Product Application: All product use solutions were applied by a spray application for 10 seconds. This delivered approximately 150 mL of product. An exposure time of 10 minutes was utilized, followed by a 10 second sterile water rinse, if applicable. Neutralizer: 99 mL of Phosphate Buffered Dilution Water Dilutions Plated: 10^0, 10^-1, 10^-2 for Total Plate Count Before • 10^0, 10^-1 for Total Plate Count After Plating Medium: Tryptone Glucose Extract Agar Incubation: 26° C. for 72 hours [table]

For data set [2], the system named is bacterial flora of prerigor beef. In words: Working Example #2: total plate count on prerigor beef, extended spray and exposure times. The format is cell-based. The note with it: 0.5% Lactic Acid, 25 psi, 10 sec spray, 10-minute exposure. The source says: The objective of the testing was to determine the efficacy of various antimicrobial treatments with extended spray and exposure times against the bacterial flora of prerigor beef. Prerigor beef samples were obtained and kept in a cooler at ambient temperature until time of testing. Ten different test treatments were utilized with four replicates per treatment. Two cores (4.3 cm diameter) were taken as each replicate from one piece for both before- and after-treatment samples and combined into 99 mL of Letheen Broth. The cores/neutralizer mixtures were stomached for 1 minute and then serially diluted and plated using pour plate technique. Test Products: • Test Formula #1* at 200 ppm […]=0.42% (4.2 mL were added to 995.8 mL tap water) • Test Formula #1* at 500 ppm […] (10.5 mL were added to 989.5 mL tap water) • 0.5% Lactic Acid • *Test Formula #1, batch # Si120972, was titrated at 4.76% total peracid. Application: Eight cores (2 cores per replicate) were placed onto a clean and sanitary screen. The cores were sprayed with the appropriate test product utilizing a 10- or 30-second spray application time. For each replicate, two cores were removed after a 10-minute exposure time and placed into a stomacher bag containing 99 mL of neutralizer. Neutralizer: 99 mL Letheen Broth Dilutions: 10^0, 10^-1, 10^-2 for Total Plate Count Before • 10^0, 10^-1 for Total Plate Count After Plating Medium: Tryptone Glucose Extract Agar Incubation: 26° C. for 72 hours Calculations: Average CFU/plate=(All eight counts from four replicates/4) • Average CFU/plate×100=Average CFU/100 mL=Y [formula] • Dilution=10, 100, or 1000 • r=2.15 cm • 2=# of cores

Data set [3] shares this test system. In words: Working Example #4: total plate count on prerigor beef, high pressure spray, comparison to Lactic Acid. The format is cell-based. Particulars: ~0.5% Lactic Acid, ~230 psi, 30 sec spray, 10-minute exposure. From the text:
The objective of the testing was to determine the efficacy of Test Formula #1 at approximately 50, 100 and 200 ppm total peracid with a high pressure application spray at elevated temperatures in comparison to Lactic Acid against the bacterial flora of prerigor beef. Prerigor beef samples were obtained and kept in a cooler at ambient temperature until time of testing. Four different test treatments were utilized with four replicates per treatment. Two cores (4.3 cm diameter) were taken as each replicate from one piece for both before- and after-treatment samples and combined into 99 mL of Letheen Broth. The cores/neutralizer mixtures were stomached for 1 minute and then serially diluted and plated using pour plate technique. Test Product: Test Formula #1 at 50, 100 and 200 ppm total peracid • Lactic Acid (88% concentrate) • (Batch # Si120972, was titrated at 4.76% total peracid) Application: Eight cores (2 cores per replicate) were aseptically removed from each sample before treatment. These were used for the before-treatment samples. The remaining sample was placed onto a clean and sanitary screen. The sample was then sprayed with Test Formula #1 at approximately 50, 100 or 200 ppm total peracid utilizing a 20- or 30-second spray application time. 0.5% Lactic Acid utilized only the 30-second spray application. […]

The test system of data set [4] is Listeria innocua ATCC 33090. In words: Working Example #5: inoculated prerigor beef, high-pressure spray. The format is cell-based. The note with it: ˜0.5%-0.75% Lactic Acid; ~220 psi, 30 second spray, ˜120° F., 10 minutes exposure. As to the method: The objective of the testing was to determine the efficacy of Test Formula #1 and Lactic Acid against Listeria innocua ATCC 33090 with a high-pressure application spray at elevated temperatures. Prerigor beef samples were obtained and kept in a cooler at ambient temperature until time of testing. Samples were cut into 13 cm pieces and 2.0 mL of the inoculum (see Test System Preparation below) was spread evenly over the entire surface of the sample. Inoculated samples were then left at room temperature (˜23° C.) for ≧15 minutes. Four replicate samples were taken (two cores per replicate) before treatment. After each spray treatment, a 10-minute exposure time was utilized, and taken four replicate samples were taken (two cores per replicate) and stomached for 1 minute, serially diluted and plated using pour plate technique. Treatments: • 1. Test Formula #1 at 200 ppm total peracid with […], 30 second spray time. • 2. Test Formula #1 at 200 ppm total peracid with ˜150 psi pressure spray, 30 second spray time. • 3. Test Formula #1 at 200 ppm total peracid with ˜100 psi pressure spray, 30 second spray time. • 4. Water Control with ˜220 psi pressure spray, 30-second spray time. • 5. ˜0.5%-0.75% Lactic Acid with ˜220 psi pressure spray, 30-second spray time. • 6. Test Formula #1 at 100 ppm total peracid with ˜220 psi pressure spray, 30 second spray time. • 7. […]

For data set [5] the following is noted: cited from earlier work.

For the molecule `CC(O)C(=O)O` (stereo not shown) [Lactic Acid, 2-hydroxypropionic acid], the “Avg. Log10 Reduc.” value is 0.91 Log10 in data set [1] (0.5% Lactic Acid, 10 s spray, 10 min exposure, 33° C.); 1.69 Log10 in data set [1] (Steam + 0.5% Lactic Acid, with sterile water rinse); −0.01 Log10 in data set [2] (98° F.); 0.07 Log10 in data set [2] (120° F.); 1.58 Log10 in data set [3]; 1.63 Log10 in data set [4]. The “Avg. CFU/100 mL After” value in data set [1] (0.5% Lactic Acid, 10 s spray, 10 min exposure, 33° C., Before 2.7 × 10^4) is 5.4 × 10^3 CFU/100 mL; in data set [1] (Steam + 0.5% Lactic Acid, with sterile water rinse, Before 2.5 × 10^4) it was 9.3 × 10^2 CFU/100 mL; in data set [2] (98° F., Before 1.6 × 10^4), 1.5 × 10^4 CFU/100 mL; in data set [2] (120° F., Before 1.0 × 10^5), 8.4 × 10^4 CFU/100 mL; in data set [3] (Before 8.7 × 10^5), 2.3 × 10^4 CFU/100 mL; in data set [4], 3.5 × 10^5 CFU/100 mL.

On to peroxyacetic acid, for which the solubility entry in data set [5] is “freely soluble in water, alcohol, ether, and sulfuric acid”.
